Laboratory results published in patent US8481496B2, “Gold (III) complexes with oligopeptides functionalized with sulfur donors and use thereof as antitumor agents” (Universita' Degli Studi di Padova, priority 2009, dated 2013).
One block for each molecule: values may come before it.

Experiments:
[1] = tested on: human prostate carcinoma PC3 cells; test: In vitro cytotoxicity, BrdU cell proliferation ELISA; assay type: cell-based; conditions: 72 h exposure, 0.05-10 μM
Description: Human prostate carcinoma PC3 cells (established from bone marrow metastasis and unresponsive to androgen treatment) were cultured in IMDM (Iscove's Modified Dulbecco's medium) supplemented with 10% heat-inactivated fetal bovine serum (FBS), penicillin (2 mg mL^−1), streptomycin (2 mg mL^−1), L-glutamine (0.1% w/v) at 37° C. in 5% CO2 and moisture-enriched atmosphere.
Before use, [Au^IIIX2(pdtc)] complexes (AUD6, AUD7, AUD8, AUD9) and cisplatin were dissolved in methyl sulfoxide (DMSO) just before the experiments. Calculated amounts of drug solutions were then added to the proper medium to a final concentration of 0.5% (v/v) DMSO which had no discernible effect on cell death.
For the cytotoxicity assay, cells (2.5×10^3 cells mL^−1) were seeded in 96-well flat-bottomed microplates in IMDM supplemented with 10% heat-inactivated FBS and incubated at 37° C. in a 5% CO2 atmosphere. The medium was then removed and replaced with a fresh one containing the compounds to be studied (previously dissolved in DMSO) at increasing concentrations (0.05-10 μM), thus exposing cells to the investigated compounds for 72 h. Triplicate cultures were established for each treatment. Cell viability was determined by a cell proliferation ELISA 5-bromo-2′-deoxyuridine colorimetric kit, according to the manufacturer's protocol. […] For comparison purposes, the cytotoxicity of cisplatin was evaluated under the same experimental conditions.

[2] = tested on: human breast cancer (MDA-MB-231) xenografts; test: Human breast tumor xenograft experiments; assay type: in vivo; conditions: 1.0 mg kg−1 s.c. daily, after 13 days, female athymic nude mice
Description: Estrogen receptor α-negative human breast cancer MDA-MB-231 cells were grown in RPMI 1640 medium supplemented with 10% fetal bovine serum, penicillin (100 units mL^−1), and streptomycin (100 μg mL^−1) at 37° C. in 5% CO2 and moisture-enriched atmosphere.
Five week-old female athymic nude mice were purchased from Taconic Research Animal Services (Hudson) and housed according to protocols approved by the Institutional Laboratory Animal Care and Use Committee of Wayne State University. MDA-MB-231 cells (5.0×10^6 cells mL^−1 suspended in 0.1 mL of serum-free RPMI 1640 medium) were inoculated subcutaneously (s.c.) in right flank of each mouse (four mice per group). When tumors reached the size of ca. 120 mm^3, mice were randomly grouped and treated daily with s.c. injection of either 1.0 mg kg^−1 of AUD6 or AUD8, or vehicle [10% DMSO, 20% Cremophore/ethanol (3:1) and 70% PBS]. Tumor size was measured every other day using calipers and their volumes were calculated according to the formula width^2×length/2. Mice have being treated for 13 days. Initial tumor growth inhibition was analyzed.

[3] = tested on: estrogen receptor α-negative human breast cancer MDA-MB-231 cells; test: Growth inhibition, MTT assay; assay type: cell-based; conditions: 1-50 μM, 22 h, FIG. 2
Description: The growth-inhibitory effect of AUD6 and AUD8 on estrogen receptor α-negative human breast cancer MDA-MB-231 cells has been also evaluated. Cells were grown in RPMI 1640 medium supplemented with 10% heat-inactivated fetal bovine serum, penicillin (100 units mL^−1), streptomycin (100 μg mL^−1), L-glutamine (0.1% w/v) at 37° C. in 5% CO2 and moisture-enriched atmosphere. For the cytotoxicity assay, cells were seeded in 96-well microplates in RPMI 1640 medium and grown to 70% to 80% confluency followed by addition of the compounds to be studied (previously dissolved in DMSO) at increasing concentrations (1-50 μM) and incubated at 37° C. in a 5% CO2 atmosphere, thus exposing cells to the investigated compounds for 22 h. Triplicate cultures were established for each treatment. Cell respiration, as an indicator of cell viability, was determined by the mitochondrial-dependent reduction of MTT (3-(4,5-dimethylthiazol-2-yl)-2,5-diphenyltetrazolium bromide) to formazan as previously described [V. Milacic, D. Chen, L. Ronconi, K. R. Landis-Piwowar, D. Fregona, Q. P. Dou, Cancer Res. 2006, 66, 10478-10486]. Cell viability was calculated by dividing the average absorbance of the cells treated with the test compounds by that of the control, the standard deviation being estimated from the average of three trials.

[4] = tested on: purified rabbit 20S proteasome; test: Inhibition of proteasomal chymotrypsin-like activity, purified proteasome; assay type: biochemical; conditions: for potency relative to previously investigated Au(III)-dithiocarbamato analogues: purified rabbit 20S proteasome; for inhibition of proteasomal chymotrypsin-like activity: purified rabbit 20S proteasome (35 ng), 0.1-25 μM, 2 h, FIG. 3A
Description: (§1) To investigate whether these compounds could also have the proteasome as a biological target, purified rabbit 20S proteasome (35 ng) or MDA-MB-231 whole cell extract (10 μg) were incubated with 20 μM of the substrate (for proteasomal chymotryptic (CT) activity) in 100 μL assay buffer (20 mmol L^−1 Tris-HCl (pH 7.5) in the presence of the compounds to be studied (previously dissolved in DMSO) at increasing concentrations (0.1-25 μM) or equivalent volume of neat DMSO as control. After 2 h incubation at 37° C., inhibition of each proteasomal chymotryptic activity was measured as previously described [V. Milacic et al. 2006, ref. cit.].

[5] = tested on: proteasome target proteins, such as Bax and p27; test: Accumulation of proteasome target proteins; assay type: cell-based; conditions: preliminary
[6] = molecular target: T1, MDA-MB-231 whole cell extract (Homo sapiens, UniProt P28074); test: Inhibition of proteasomal chymotrypsin-like activity, whole cell extract; assay type: biochemical; conditions: for potency relative to previously investigated Au(III)-dithiocarbamato analogues: MDA-MB-231 whole cell extract; for inhibition of proteasomal chymotrypsin-like activity: MDA-MB-231 whole cell extract (10 μg), 0.1-25 μM, 2 h, FIG. 3B
T1 construct: MDA-MB-231 whole cell extract (10 μg); endogenous in cells; host or cells: MDA-MB-231 whole cell extract
T1 sequence (P28074 60-263): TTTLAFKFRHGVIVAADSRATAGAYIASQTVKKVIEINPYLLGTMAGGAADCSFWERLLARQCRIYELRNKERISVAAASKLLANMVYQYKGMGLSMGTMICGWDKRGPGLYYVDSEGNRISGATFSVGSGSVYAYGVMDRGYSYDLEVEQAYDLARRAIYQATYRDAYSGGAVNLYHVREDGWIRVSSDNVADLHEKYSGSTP
Description: as §1

[7] = tested on: cisplatin-sensitive (2008) and -resistant (C13*) human ovarian carcinoma cells; conditions: cited from earlier work
MDA-MB-231 tumor = conditions: MDA-MB-231 tumor-bearing nude mice; cited from earlier work

Molecule: [Au^IIICl2((t-Bu)O-Gly-Sar-dtc)] [AUD7]
IC50 [1]: 1000 ± 100 nM

Molecule: N.N.[Cl][Pt][Cl] [cisplatin, cis-dichlorodiamminoplatinum(II), reference compound]
IC50 [1]: 2600 ± 200 nM

potency relative to previously investigated Au(III)-dithiocarbamato analogues [6]: two-fold more potent
inhibition of proteasomal chymotrypsin-like activity [6]: concentration-dependent
Molecule: [Au^IIIBr2((t-Bu)O-Aib-Sar-dtc)] [AUD8]
tumor growth inhibition [2]: > 90%
IC50 [1]: 550 ± 50 nM
growth-inhibitory effect on MDA-MB-231 cells [3]: slightly higher activity
potency relative to previously investigated Au(III)-dithiocarbamato analogues [4]: two-fold more potent
inhibition of proteasomal chymotrypsin-like activity [4]: concentration-dependent
accumulation of proteasome target proteins (Bax, p27) [5]: induce accumulation of proteasome target proteins

Molecule: CCOC(=O)CN(C)C(=S)[S][Pt][Cl].c1ccncc1 [[Pt^IICl(ESDT)(py)]]
inhibition of tumor cell growth compared with cisplatin ([7]; 2008 and C13* cells): greater inhibition of tumor cell growth than cisplatin
cross-resistance in C13* cells ([7]; cisplatin-resistant C13* cells): complete lack of cross-resistance

Molecule: CN(C)C1=[S+][Au-]([Br])([Br])[S]1 [[Au^IIIBr2(DMDT)]]
inhibition of tumor growth (MDA-MB-231 tumor): significant inhibition of tumor growth

Molecule: [Au^IIICl2((t-Bu)O-Aib-Sar-dtc)] [AUD9]
IC50 [1]: 750 ± 60 nM

potency relative to previously investigated Au(III)-dithiocarbamato analogues [6]: two-fold more potent
inhibition of proteasomal chymotrypsin-like activity [6]: concentration-dependent
Molecule: [Au^IIIBr2((t-Bu)O-Gly-Sar-dtc)] [AUD6]
tumor growth inhibition [2]: ca. 33%
IC50 [1]: 850 ± 70 nM
potency relative to previously investigated Au(III)-dithiocarbamato analogues [4]: two-fold more potent
inhibition of proteasomal chymotrypsin-like activity [4]: concentration-dependent
accumulation of proteasome target proteins (Bax, p27) [5]: induce accumulation of proteasome target proteins
